Measured values taken from patent US10508120B2, “TYK2 inhibitors and uses thereof” (Nimbus Lakshmi, Inc., priority 2017, dated 2019).

What was measured:
[1] = target: human TYK2 (JH2domain-pseudokinase) (Homo sapiens (Human), UniProt P29597); test: TYK2 JH2 Domain Binding Assay (KINOMEscan)
Method in brief: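 Kds, run in duplicate, came from Hill fits (slope fixed at −1) of an 11-point 3-fold dilution series starting at 30,000 nM. Bead-retained TYK2 JH2 (aa G556–D888)–NFkB DBD fusion, DNA-tagged and expressed in HEK293 cells, was read by qPCR after 1 h room-temperature binding in 0.9% DMSO.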

[2] = target: Tyk2/JAK2 (heterodimeric complex) (Homo sapiens (Human), UniProt P29597); test: IL-12 Induced pSTAT4 in Human PBMC; format: cell-based; settings: 1.7 ng/mL IL-12
Chain of Tyk2/JAK2 (heterodimeric complex) (P29597 whole entry, other chains not shown): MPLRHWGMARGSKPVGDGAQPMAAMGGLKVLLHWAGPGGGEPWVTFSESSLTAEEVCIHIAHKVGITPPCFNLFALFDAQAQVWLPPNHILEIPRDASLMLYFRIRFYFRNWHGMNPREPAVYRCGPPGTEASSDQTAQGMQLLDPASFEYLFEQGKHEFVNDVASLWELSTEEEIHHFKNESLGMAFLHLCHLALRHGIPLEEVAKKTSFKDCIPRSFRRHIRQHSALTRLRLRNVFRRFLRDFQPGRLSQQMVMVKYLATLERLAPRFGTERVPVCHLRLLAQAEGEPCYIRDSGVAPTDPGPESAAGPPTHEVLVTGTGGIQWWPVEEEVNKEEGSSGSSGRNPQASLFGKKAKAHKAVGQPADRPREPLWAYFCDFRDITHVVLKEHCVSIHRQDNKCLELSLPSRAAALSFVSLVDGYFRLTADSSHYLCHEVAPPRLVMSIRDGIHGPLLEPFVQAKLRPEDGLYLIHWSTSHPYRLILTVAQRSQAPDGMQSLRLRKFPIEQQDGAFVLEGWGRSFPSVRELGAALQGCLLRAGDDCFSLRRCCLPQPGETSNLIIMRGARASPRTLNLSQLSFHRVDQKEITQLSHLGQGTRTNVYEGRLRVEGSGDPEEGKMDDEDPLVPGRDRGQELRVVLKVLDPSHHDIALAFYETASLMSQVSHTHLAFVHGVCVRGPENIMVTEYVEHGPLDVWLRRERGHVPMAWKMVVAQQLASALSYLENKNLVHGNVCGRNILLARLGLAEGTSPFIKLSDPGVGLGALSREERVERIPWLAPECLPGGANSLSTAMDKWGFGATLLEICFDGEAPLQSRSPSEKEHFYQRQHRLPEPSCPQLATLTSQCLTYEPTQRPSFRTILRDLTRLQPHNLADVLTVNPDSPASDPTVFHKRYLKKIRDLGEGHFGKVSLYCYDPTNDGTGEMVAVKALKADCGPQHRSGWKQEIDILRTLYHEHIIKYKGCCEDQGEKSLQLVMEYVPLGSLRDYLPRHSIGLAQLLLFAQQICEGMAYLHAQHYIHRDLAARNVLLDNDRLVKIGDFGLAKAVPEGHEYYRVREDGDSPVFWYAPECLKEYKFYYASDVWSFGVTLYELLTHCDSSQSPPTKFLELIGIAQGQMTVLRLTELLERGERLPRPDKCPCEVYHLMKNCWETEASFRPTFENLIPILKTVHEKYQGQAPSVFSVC
From the text: The IL-12 Induced pSTAT4 assay evaluates the inhibition of IL-12 induced STAT4 phophorylation mediated by Tyk2/JAK2 (heterodimeric complex).

[3] = target: Tyk2 kinase domain (DH1) (Homo sapiens (Human), UniProt P29597); test: Tyk2 Radioactive Kinase Assay; format: biochemical; settings: 10 μM compound; 10 μM ATP; read-out: Tyk2 JH1% Inhibition @ 10 μM
Chain of Tyk2 kinase domain (DH1) (P29597 897-1176): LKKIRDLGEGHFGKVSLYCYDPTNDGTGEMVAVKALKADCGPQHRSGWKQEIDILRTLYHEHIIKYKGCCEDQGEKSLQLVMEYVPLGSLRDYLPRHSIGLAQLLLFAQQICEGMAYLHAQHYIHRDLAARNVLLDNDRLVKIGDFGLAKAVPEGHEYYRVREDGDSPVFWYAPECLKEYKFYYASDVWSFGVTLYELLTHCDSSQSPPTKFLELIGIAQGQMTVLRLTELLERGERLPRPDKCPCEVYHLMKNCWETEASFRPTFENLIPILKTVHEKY
Method in brief: (§1)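 Values are single-concentration percent inhibition figures. They were obtained with 10 μM compound in a radioactivity-based kinase assay run separately on each enzyme.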

[4] = target: JAK2 kinase domain (JH1) (Homo sapiens (Human), UniProt O60674); test: JAK2 Radioactive Kinase Assay; format: biochemical; settings: 10 μM compound; 10 μM ATP; read-out: JAK2 JH1% Inhibition @ 10 μM
Chain of JAK2 kinase domain (JH1) (O60674 849-1124): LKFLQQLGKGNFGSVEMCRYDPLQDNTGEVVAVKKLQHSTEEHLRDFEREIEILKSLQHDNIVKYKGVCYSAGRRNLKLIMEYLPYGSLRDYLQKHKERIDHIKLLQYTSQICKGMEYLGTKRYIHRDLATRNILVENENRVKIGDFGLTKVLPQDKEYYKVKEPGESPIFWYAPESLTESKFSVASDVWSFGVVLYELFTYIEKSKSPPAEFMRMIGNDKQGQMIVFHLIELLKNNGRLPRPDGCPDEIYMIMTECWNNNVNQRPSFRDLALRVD
Method in brief: as §1

[5] = target: JAK2/JAK2 homdimeric complex (Homo sapiens (Human), UniProt O60674); test: GM-CSF Induced pSTAT5 in Human PBMC; format: cell-based; settings: GM-CSF 5 ng/mL for 20 minutes, pSTAT5 by MSD, read-out: PBMC_GMCSF_pSTAT5 IC50
Chain of JAK2/JAK2 homdimeric complex (O60674 whole entry): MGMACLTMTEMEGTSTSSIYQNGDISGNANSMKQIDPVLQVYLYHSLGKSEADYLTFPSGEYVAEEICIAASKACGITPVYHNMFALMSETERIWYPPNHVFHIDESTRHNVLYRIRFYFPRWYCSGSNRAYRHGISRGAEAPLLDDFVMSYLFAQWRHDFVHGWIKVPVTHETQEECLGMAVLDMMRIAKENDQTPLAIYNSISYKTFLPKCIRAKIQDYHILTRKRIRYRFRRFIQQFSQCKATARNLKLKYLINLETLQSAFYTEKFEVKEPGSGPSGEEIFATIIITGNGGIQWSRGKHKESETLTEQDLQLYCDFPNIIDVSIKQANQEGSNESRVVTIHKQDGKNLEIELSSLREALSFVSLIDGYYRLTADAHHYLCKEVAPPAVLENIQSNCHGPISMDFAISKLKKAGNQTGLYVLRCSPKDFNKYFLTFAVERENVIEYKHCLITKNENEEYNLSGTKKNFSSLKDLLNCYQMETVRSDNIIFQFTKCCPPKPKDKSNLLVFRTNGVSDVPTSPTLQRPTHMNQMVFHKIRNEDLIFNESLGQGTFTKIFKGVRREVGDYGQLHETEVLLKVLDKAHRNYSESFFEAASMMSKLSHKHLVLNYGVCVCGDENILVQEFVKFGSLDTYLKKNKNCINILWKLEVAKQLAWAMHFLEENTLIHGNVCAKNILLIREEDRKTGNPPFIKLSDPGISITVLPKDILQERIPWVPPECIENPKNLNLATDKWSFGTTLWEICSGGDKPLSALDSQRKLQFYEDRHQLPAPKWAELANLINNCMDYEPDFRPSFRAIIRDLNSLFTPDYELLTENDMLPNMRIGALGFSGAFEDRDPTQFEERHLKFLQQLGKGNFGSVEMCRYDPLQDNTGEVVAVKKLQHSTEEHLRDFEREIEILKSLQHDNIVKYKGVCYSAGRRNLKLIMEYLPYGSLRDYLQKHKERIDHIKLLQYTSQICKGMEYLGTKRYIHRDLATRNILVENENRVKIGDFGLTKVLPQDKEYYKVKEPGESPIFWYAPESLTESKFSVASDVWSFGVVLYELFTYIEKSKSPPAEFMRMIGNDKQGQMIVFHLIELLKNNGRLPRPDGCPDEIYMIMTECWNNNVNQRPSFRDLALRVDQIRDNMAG
Chain of JAK2/JAK2 homdimeric complex (P32927 17-897 partner): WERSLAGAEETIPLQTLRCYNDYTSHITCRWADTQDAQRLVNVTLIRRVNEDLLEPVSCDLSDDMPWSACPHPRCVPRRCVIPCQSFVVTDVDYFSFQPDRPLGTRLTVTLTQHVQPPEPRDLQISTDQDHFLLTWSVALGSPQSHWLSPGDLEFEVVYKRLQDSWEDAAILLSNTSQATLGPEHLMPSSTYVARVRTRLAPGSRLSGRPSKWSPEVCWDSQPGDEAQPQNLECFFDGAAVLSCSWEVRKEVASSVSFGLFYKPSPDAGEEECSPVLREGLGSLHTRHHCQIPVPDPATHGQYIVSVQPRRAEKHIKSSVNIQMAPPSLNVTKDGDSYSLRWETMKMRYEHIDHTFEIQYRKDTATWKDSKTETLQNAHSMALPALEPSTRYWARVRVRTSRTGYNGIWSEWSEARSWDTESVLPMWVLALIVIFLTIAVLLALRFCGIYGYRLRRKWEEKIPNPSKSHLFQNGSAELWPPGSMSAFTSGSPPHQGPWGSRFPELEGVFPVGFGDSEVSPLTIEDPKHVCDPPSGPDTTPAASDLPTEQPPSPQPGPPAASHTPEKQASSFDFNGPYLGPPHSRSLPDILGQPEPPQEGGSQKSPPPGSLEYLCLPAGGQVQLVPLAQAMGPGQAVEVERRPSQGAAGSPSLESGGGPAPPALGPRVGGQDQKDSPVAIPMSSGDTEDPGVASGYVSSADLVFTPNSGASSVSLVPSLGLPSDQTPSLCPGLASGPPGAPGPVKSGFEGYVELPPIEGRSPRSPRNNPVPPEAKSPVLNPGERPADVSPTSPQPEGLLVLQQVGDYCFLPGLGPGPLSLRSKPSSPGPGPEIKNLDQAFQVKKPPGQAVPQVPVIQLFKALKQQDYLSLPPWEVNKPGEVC

Chain of human TYK2 (JH2domain-pseudokinase) (P29597 556-888): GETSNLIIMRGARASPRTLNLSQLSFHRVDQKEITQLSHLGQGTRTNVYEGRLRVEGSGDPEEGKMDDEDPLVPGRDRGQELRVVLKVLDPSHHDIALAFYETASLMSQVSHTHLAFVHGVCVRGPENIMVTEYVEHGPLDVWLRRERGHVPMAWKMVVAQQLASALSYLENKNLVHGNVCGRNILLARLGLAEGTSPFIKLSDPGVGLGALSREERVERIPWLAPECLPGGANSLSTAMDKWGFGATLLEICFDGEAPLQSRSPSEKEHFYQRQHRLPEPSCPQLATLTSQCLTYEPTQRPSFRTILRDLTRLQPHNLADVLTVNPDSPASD

| SMILES | Kd [1] [nM] | IC50 [2] [nM] | inhibition at 10 µM [3] [%] | inhibition at 10 µM [4] [%] | IC50 [5] [µM] |
| --- | --- | --- | --- | --- | --- |
| CNc1cc(-c2cn(CCCO)c3ncccc23)nc2c(C(=O)N[C@H]3CC[C@@H]3OC)cnn12 [I-1388] | 0.2 to 1 | < 100 | – | – | – |
| CNc1cc(Nc2cccn(-c3cnn(C)c3F)c2=O)nc2c(C(=O)N[C@H]3CC[C@@H]3OC)cnn12 [I-1369] | – | < 100 | – | – | – |
| CNc1cc(Nc2cccn([C@@H]3CC[C@H]3O)c2=O)nc2c(C(=O)N[C@@H]3CC[C@H]3OC)cnn12 [I-1309] | < 0.2 | < 100 | – | – | – |
| CNc1cc(-c2cn(CCCO)c3ncccc23)nc2c(C(=O)N[C@@H]3CC[C@H]3OC)cnn12 [I-1299] | < 0.2 | < 100 | – | – | – |
| CNc1cc(-c2cn([C@@H]3CCN(CCF)C3)c3ncccc23)nc2c(C(=O)N[C@@H]3C[C@@H]3F)cnn12 [I-1366] | 1 to 10 | < 100 | – | – | – |
| CNc1cc(Nc2cccn(C3CC(F)(F)C3)c2=O)nc2c(C(=O)N[C@H]3CC[C@@H]3OC)cnn12 [I-1389] | 0.2 to 1 | < 100 | – | – | – |
| CNc1cc(Nc2cccn([C@@H]3CCN(CCF)C3)c2=O)nc2c(C(=O)N[C@@H]3CC[C@H]3OC)cnn12 [I-1333] | 1 to 10 | < 100 | – | – | – |
| CNc1cc(-c2cn(C(C)C)c3ncc(F)cc23)nc2c(C(=O)N[C@H]3CC[C@H]3O)cnn12 [I-1387] | 1 to 10 | < 100 | – | – | – |
| CNc1cc(Nc2cccn([C@H]3CCC[C@H]3O)c2=O)nc2c(C(=O)N[C@H]3CC[C@@H]3OC)cnn12 [I-1373] | – | < 100 | – | – | – |
| CNc1cc(Nc2cccn([C@H]3CCC[C@@H](O)C3)c2=O)nc2c(C(=O)N[C@H]3CC[C@@H]3OC)cnn12 [I-1296] | < 0.2 | < 100 | – | – | – |
| CNc1cc(-c2cn(C3CCOCC3)c3ncccc23)nc2c(C(=O)N[C@@H]3CC[C@H]3OC)cnn12 [I-1328] | 0.2 to 1 | < 100 | – | – | – |
| CNc1cc(Nc2cccn3cnnc23)nc2c(C(=O)N[C@H]3CC[C@@H]3OC)cnn12 [I-1343] | – | < 100 | – | – | – |
| CNc1cc(-c2cn([C@H]3CCCOC3)c3ncccc23)nc2c(C(=O)N[C@H]3CC[C@@H]3OC)cnn12 [I-1365] | < 0.2 | < 100 | – | – | – |
| CNc1cc(-c2cn(C3CCOCC3)c3ncc(F)cc23)nc2c(C(=O)N[C@H]3CC[C@@H]3O)cnn12 [I-1314] | < 0.2 | < 100 | – | – | – |
| CNc1cc(Nc2cccn(-c3nn(C)cc3F)c2=O)nc2c(C(=O)N[C@@H]3C[C@@H]3F)cnn12 [I-1321] | < 0.2 | < 100 | – | – | – |
| CNc1cc(-c2cn([C@@H]3CCCOC3)c3ncccc23)nc2c(C(=O)N[C@H]3CC[C@@H]3OC)cnn12 [I-1364] | 0.2 to 1 | < 100 | – | – | – |
| CNc1cc(Nc2cccn([C@@H]3CCC[C@@H](OC)C3)c2=O)nc2c(C(=O)N[C@H]3CC[C@@H]3OC)cnn12 [I-1331] | 1 to 10 | < 100 | – | – | – |
| CNC(=O)c1occc1Nc1cc(NC)n2ncc(C(=O)N[C@H]3CC[C@@H]3OC)c2n1 [I-1323] | 1 to 10 | < 100 | – | – | – |
| CNc1cc(-c2cn([C@H]3CCCOC3)c3ncccc23)nc2c(C(=O)N[C@H]3CC[C@@H]3OC)cnn12 [I-1283] | 1 to 10 | < 100 | – | – | – |
| CNc1cc(Nc2cccn([C@H]3CCCC[C@H]3OC)c2=O)nc2c(C(=O)N[C@H]3CC[C@@H]3OC)cnn12 [I-1377] | – | < 100 | – | – | – |

| SMILES | Kd [1] [nM] | IC50 [2] [nM] | inhibition at 10 µM [3] [%] | inhibition at 10 µM [4] [%] | IC50 [5] [µM] |
| --- | --- | --- | --- | --- | --- |
| CNc1cc(-c2cn([C@H]3CCN(CCF)C3)c3ncccc23)nc2c(C(=O)N[C@@H]3C[C@@H]3F)cnn12 [I-1362] | 0.2 to 1 | < 100 | – | – | – |
| CNc1cc(Nc2cccn([C@@H]3CC[C@@H]3O)c2=O)nc2c(C(=O)N[C@@H]3CC[C@H]3OC)cnn12 [I-1350] | < 0.2 | < 100 | – | – | – |
| CNc1cc(Nc2cc3cccnc3n2C2CC2)nc2c(C(=O)N[C@H]3CC[C@@H]3OC)cnn12 [I-1325] | < 0.2 | < 100 | – | – | – |
| CNc1cc(Nc2cccn([C@@H]3CCCN(CCF)C3)c2=O)nc2c(C(=O)N[C@H]3CC[C@@H]3OC)cnn12 [I-1382] | < 0.2 | < 100 | – | – | – |
| CNc1cc(Nc2cccn([C@@H]3CCN(CCF)C3)c2=O)nc2c(C(=O)NC3CCC3OC)cnn12 (stereo partly drawn) [I-1096, 5-((1-((R)-1-(2-fluoroethyl)pyrrolidin-3-yl)-2-oxo-1,2-dihydropyridin-3-yl)amino)-N-(2-methoxycyclobutyl)-7-(methylamino)pyrazolo[1,5-a]pyrimidine-3-carboxamide] | < 0.2 | – | < 50 | < 50 | > 50 |
| CNc1cc(Nc2cccn([C@@H]3CC[C@H]3OC)c2=O)nc2c(C(=O)N[C@@H]3C[C@@H]3F)cnn12 [I-1022] | < 0.2 | – | < 50 | < 50 | > 12.5 |
| CNc1cc(Nc2cccn([C@H]3CCC[C@H](OC)C3)c2=O)nc2c(C(=O)NCC3(CO)CC3)cnn12 [I-1010] | < 0.2 | – | < 50 | < 50 | > 50 |
| CNc1cc(Nc2cccn(-c3ncc(C)s3)c2=O)nc2c(C(=O)N[C@@H]3CC[C@@H]3O)cnn12 [I-1073] | < 0.2 | – | < 50 | < 50 | > 50 |
| CNc1cc(Nc2cccc(N3CCCC3=O)n2)nc2c(C(=O)N[C@H]3CC[C@H]3O)cnn12 [I-969] | < 0.2 | – | < 50 | < 50 | > 50 |
| CNc1cc(Nc2cccn(-c3ccccc3F)c2=O)nc2c(C(=O)N[C@H]3CC[C@@H]3O)cnn12 [I-1038] | < 0.2 | – | < 50 | < 50 | > 50 |
| CNc1cc(Nc2cccn([C@H]3CCC[C@H](OC)C3)c2=O)nc2c(C(=O)NC3CC3)cnn12 [I-1025] | < 0.2 | – | < 50 | < 50 | > 50 |
| CNc1cc(Nc2cccn([C@@H]3CCCN(CCF)C3)c2=O)nc2c(C(=O)N[C@@H]3CC[C@H]3OC)cnn12 [I-1095] | < 0.2 | – | < 50 | < 50 | > 50 |
| CNc1cc(Nc2cccn([C@@H]3CC[C@H]3O)c2=O)nc2c(C(=O)N[C@@H]3C[C@@H]3F)cnn12 [I-999] | < 0.2 | – | < 50 | < 50 | > 50 |
| CNc1cc(Nc2cccn(-c3cnco3)c2=O)nc2c(C(=O)N[C@H]3CC[C@H]3O)cnn12 [I-1017] | < 0.2 | – | < 50 | < 50 | > 12.5 |
| CNc1cc(-c2cn(C3CC3)c3ncccc23)nc2c(C(=O)N[C@H]3CC[C@@H]3OC)cnn12 (stereo in doubt) [I-1067, 5-(1-cyclopropyl-1H-pyrrolo[2,3-b]pyridin-3-yl)-N-(2-methoxycyclobutyl)-7-(methylamino)pyrazolo[1,5-a]pyrimidine-3-carboxamide] | < 0.2 | – | < 50 | < 50 | > 12.5 |
| CNc1cc(Nc2cccn([C@H]3CC[C@](C)(OC)CC3)c2=O)nc2c(C(=O)N[C@H]3CC[C@@H]3OC)cnn12 [I-1105] | < 0.2 | – | < 50 | < 50 | > 50 |
| CNc1cc(Nc2cccn([C@H]3CCC[C@H]3O)c2=O)nc2c(C(=O)N[C@H]3CC[C@@H]3OC)cnn12 [I-1101] | < 0.2 | – | < 50 | < 50 | > 50 |
| CNc1cc(Nc2cccn([C@@H]3CCC[C@H](OC)C3)c2=O)nc2c(C(=O)N[C@@H]3CC[C@H]3OC)cnn12 [I-1082] | < 0.2 | – | < 50 | < 50 | > 50 |
| CNc1cc(Nc2cccn(-c3cnn(C)c3F)c2=O)nc2c(C(=O)N[C@H]3CC[C@@H]3OC)cnn12 [I-1066] | < 0.2 | – | < 50 | < 50 | > 50 |
